Measured values from patent US10457710B2, “Antimicrobial peptides, their variants and uses” (priority 2015, dated 2019).
Where a SMILES comes first, the peptide text is derived from it. [ ]: non-standard residue; d: D form.

Legend:
Type in all cases: cell-based
[1] = tested on: clinical strains of Acinetobacter baumannii; test: MIC, microdilution, clinical strains; design: unit: μg/ml; conditions: 0.02% BSA, 0.2% acetic acid
Protocol: Minimum inhibition concetrations (MICs) were determined against Escherichia coli (ATCC 25922), Staphylococcus aureus (ATCC 25923), Klebsiella pneumoniae (ATCC 10031) and Pseudomonas aeruginosa (ATCC 27853). Also clinical strains of E. coli, K. pneumoniae, E. cloacae, P. aeruginosa, Serratia marcescens, Proteus mirabilis, S. pneumoniae, Acinetobacter baumannii, A. johnsonii and S. aureus were used for MICs assays. Additionally, clinical strains of yeast including Candida albicans, C. glabrata, C. parapsilosis and C. quillermondiae were used. The susceptibility of these microorganisms to Chain peptides were determined using micro broth dilution assay. Colonies of the respective microorganism from Muller Hinton (MH) agar plates incubated overnight were suspended in MH broth media and final concentration of microorganism was adjusted to 5.0×10^5 cfu/ml. An aliquot of 10 μl of each Chain peptide, or gentamicin, tetracycline as reference antibiotics were added in differing concentrations along with 90 μl of bacterial suspension to 96 well polypropylene plates and incubated at 37° C. for 20 to 24 hours. Concentrations of Chain peptides and reference antibiotics ranged from 0.125 to 128 μg/ml and the MICs were recorded as the lowest concentration with no visual growth of bacteria. Similarly, antifungal MICs were tested in Potato dextrose broth.
Clinical strains of yeasts including Candida albicans, C. glabrata, C. parapsilosis and C. quillermondiae were also tested with the 12 Chain peptides. The minimum inhibitory concentration (MICs) varied between these peptides and are presented in Tables 4a, 4b, 4c and 5a, 5b, 5c. Peptides Chain 105, 201 and 308 are broad spectrum antimicrobials with MICs between 0.5-32 μg/ml against all the bacteria and yeasts tested, except Serratia marcescens and Proteus mirabilis, against which the MICs were between 64-128 μg/ml. Peptide Chain 306 has narrow spectrum activity against E. coli at 1 μg/ml and for the rest of the bacterial strains at >32 μg/ml (FIG. 10c).

C. quillermondiae = test: MIC, clinical yeast strains; conditions: clinical yeast strain 1; D-form peptide; concentrations tested 0.125 to 128 μg/ml
Outline: (§1)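 Clinical isolates were exposed to peptide concentrations from 0.125 up to 128 μg/ml at a starting density of 5.0×10^5 cfu/ml. Antifungal testing took place in potato dextrose broth at 37° C for 20 to 24 hours, and the end point was the absence of visible growth.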

Candida albicans = test: MIC, clinical yeast strains; conditions: D-form peptide, concentrations tested 0.125 to 128 μg/ml
Outline: as §1

C. glabrata = test: MIC, clinical yeast strains; conditions: D-form peptide, concentrations tested 0.125 to 128 μg/ml
Outline: as §1

C. parapsilosis = test: MIC, clinical yeast strains; conditions: D-form peptide, concentrations tested 0.125 to 128 μg/ml
Outline: as §1

[2] = tested on: clinical strains of E. coli; test: MIC, microdilution, clinical strains; conditions: microdilution, Muller Hinton broth-cation adjusted, 0.02% BSA, 0.2% acetic acid
Outline: (§2)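 MIC = lowest peptide concentration without visual growth after 20–24 h at 37° C. Range 0.125–128 μg/ml, inoculum 5.0×10^5 cfu/ml, microdilution format. Antifungal tests used potato dextrose broth; bacterial tests used MH broth.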

[3] = tested on: clinical strains of S. aureus; test: MIC, microdilution, clinical strains; conditions: 0.02% BSA, 0.2% acetic acid
Outline: as §2

[4] = tested on: clinical strains of P. aeruginosa; test: MIC, microdilution, clinical strains; conditions: 0.02% BSA, 0.2% acetic acid
Outline: as §2

[5] = tested on: clinical strains of Serratia marcescens; test: MIC, microdilution, clinical strains; conditions: 0.02% BSA, 0.2% acetic acid
Outline: as §2

[6] = tested on: clinical strains of E. cloacae; test: MIC, microdilution, clinical strains; conditions: 0.02% BSA, 0.2% acetic acid
Outline: as §2

[7] = tested on: clinical strains of Proteus mirabilis; test: MIC, microdilution, clinical strains; conditions: 0.02% BSA, 0.2% acetic acid
Outline: as §2

[8] = tested on: clinical strains of S. pneumoniae; test: MIC, microdilution, clinical strains; conditions: 0.02% BSA, 0.2% acetic acid
Outline: as §2

[9] = tested on: clinical strains of K. pneumoniae; test: MIC, microdilution, clinical strains; conditions: 0.02% BSA, 0.2% acetic acid
Outline: as §2

CC[C@@H](C)[C@@H](NC(=O)[C@@H](Cc1c[nH]c2ccccc12)NC(=O)[C@H](N)CCCCN)C(=O)N[C@@H](C(=O)N[C@H](Cc1c[nH]c2ccccc12)C(=O)N[C@H](CCCNC(=N)N)C(=O)N[C@H](Cc1c[nH]c2ccccc12)C(=O)N[C@H](CCCNC(=N)N)C(=O)N[C@H](Cc1ccccc1)C(=O)N[C@H](CCCCN)C(=O)N[C@H](CCCNC(=N)N)C(=O)O)C(C)C [Chain201D] (H-[dK][dW][dI][dV][dW][dR][dW][dR][dF][dK][dR]-OH)
Minimum inhibitory concentration ([1]; Acinetobacter baumannii strain 1, Muller Hinton broth-cation adjusted): 4 | Minimum inhibitory concentration ([1]; Acinetobacter baumannii strain 2, Muller Hinton broth-cation adjusted): 4 | Minimum inhibitory concentration ([1]; Acinetobacter baumannii strain 3, Muller Hinton broth-cation adjusted): 4 | Minimum inhibitory concentration ([1]; Acinetobacter baumannii strain 4, Muller Hinton broth-cation adjusted): 4 | Minimum inhibitory concentration ([1]; Acinetobacter baumannii strain 5, Muller Hinton broth-cation adjusted): 4 | Minimum inhibitory concentration, C. quillermondiae strain 1 (C. quillermondiae): 8 | Minimum inhibitory concentration, Candida albicans strain 1 (Candida albicans; clinical yeast strain 1): 16 | Minimum inhibitory concentration, Candida albicans strain 2 (Candida albicans; clinical yeast strain 2): 8 | Minimum inhibitory concentration, Candida albicans strain 3 (Candida albicans; clinical yeast strain 3): 8 | Minimum inhibitory concentration, Candida albicans strain 4 (Candida albicans; clinical yeast strain 4): 16 | Minimum inhibitory concentration, Candida albicans strain 5 (Candida albicans; clinical yeast strain 5): 8 | Minimum inhibitory concentration, C. glabrata strain 1 (C. glabrata; clinical yeast strain 1): 8 | Minimum inhibitory concentration, C. glabrata strain 2 (C. glabrata; clinical yeast strain 2): 8 | Minimum inhibitory concentration, C. glabrata strain 3 (C. glabrata; clinical yeast strain 3): 8 | Minimum inhibitory concentration, C. glabrata strain 4 (C. glabrata; clinical yeast strain 4): 64 | Minimum inhibitory concentration, C. parapsilosis strain 1 (C. parapsilosis; clinical yeast strain 1): 8 | Minimum inhibitory concentration, C. parapsilosis strain 2 (C. parapsilosis; clinical yeast strain 2): 8 | Minimum inhibitory concentration, C. parapsilosis strain 3 (C. parapsilosis; clinical yeast strain 3): 8 | Minimum inhibitory concentration, C. parapsilosis strain 4 (C. parapsilosis; clinical yeast strain 4): 8 | Minimum inhibitory concentration ([2]; Escherichia coli strain 1): 16 | Minimum inhibitory concentration ([2]; Escherichia coli strain 2): 1 | Minimum inhibitory concentration ([2]; Escherichia coli strain 3): 1 | Minimum inhibitory concentration ([2]; Escherichia coli strain 4): 1 | Minimum inhibitory concentration ([2]; Escherichia coli strain 5): 1 | Minimum inhibitory concentration ([3]; Staphylococcus aureus strain 1, Muller Hinton broth-cation adjusted): 1 | Minimum inhibitory concentration ([3]; Staphylococcus aureus strain 2, Muller Hinton broth-cation adjusted): 1 | Minimum inhibitory concentration ([3]; Staphylococcus aureus strain 3, Muller Hinton broth-cation adjusted): 1 | Minimum inhibitory concentration ([3]; Staphylococcus aureus strain 4, Muller Hinton broth-cation adjusted): 1 | Minimum inhibitory concentration ([3]; Staphylococcus aureus strain 5, Muller Hinton broth-cation adjusted): 1 | Minimum inhibitory concentration ([4]; Pseudomonas aeruginosa strain 1, Muller Hinton broth-cation adjusted): 4 | Minimum inhibitory concentration ([4]; Pseudomonas aeruginosa strain 2, Muller Hinton broth-cation adjusted): 4 | Minimum inhibitory concentration ([4]; Pseudomonas aeruginosa strain 3, Muller Hinton broth-cation adjusted): 4 | Minimum inhibitory concentration ([4]; Pseudomonas aeruginosa strain 4, Muller Hinton broth-cation adjusted): 2 | Minimum inhibitory concentration ([4]; Pseudomonas aeruginosa strain 5, Muller Hinton broth-cation adjusted): 2 | Minimum inhibitory concentration ([5]; Serratia marcescens strain 1, Muller Hinton broth-cation adjusted): 64 | Minimum inhibitory concentration ([5]; Serratia marcescens strain 2, Muller Hinton broth-cation adjusted): 64 | Minimum inhibitory concentration ([5]; Serratia marcescens strain 3, Muller Hinton broth-cation adjusted): 64 | Minimum inhibitory concentration ([5]; Serratia marcescens strain 4, Muller Hinton broth-cation adjusted): 64 | Minimum inhibitory concentration ([5]; Serratia marcescens strain 5, Muller Hinton broth-cation adjusted): 128 | Minimum inhibitory concentration ([6]; Enterobacter cloacae strain 1, Muller Hinton broth-cation adjusted): 1 | Minimum inhibitory concentration ([6]; Enterobacter cloacae strain 2, Muller Hinton broth-cation adjusted): 2 | Minimum inhibitory concentration ([6]; Enterobacter cloacae strain 3, Muller Hinton broth-cation adjusted): 2 | Minimum inhibitory concentration ([6]; Enterobacter cloacae strain 4, Muller Hinton broth-cation adjusted): 2 | Minimum inhibitory concentration ([6]; Enterobacter cloacae strain 5, Muller Hinton broth-cation adjusted): 1 | Minimum inhibitory concentration ([7]; Proteus mirabilis strain 1, Muller Hinton broth-cation adjusted): >128 | Minimum inhibitory concentration ([7]; Proteus mirabilis strain 2, Muller Hinton broth-cation adjusted): 32 | Minimum inhibitory concentration ([7]; Proteus mirabilis strain 3, Muller Hinton broth-cation adjusted): 64 | Minimum inhibitory concentration ([7]; Proteus mirabilis strain 4, Muller Hinton broth-cation adjusted): >128 | Minimum inhibitory concentration ([7]; Proteus mirabilis strain 5, Muller Hinton broth-cation adjusted): >128 | Minimum inhibitory concentration ([8]; Streptococcus pneumoniae strain 1, Muller Hinton broth-cation adjusted): 8 | Minimum inhibitory concentration ([8]; Streptococcus pneumoniae strain 2, Muller Hinton broth-cation adjusted): 4 | Minimum inhibitory concentration ([8]; Streptococcus pneumoniae strain 3, Muller Hinton broth-cation adjusted): 2 | Minimum inhibitory concentration ([8]; Streptococcus pneumoniae strain 4, Muller Hinton broth-cation adjusted): 4 | Minimum inhibitory concentration ([8]; Streptococcus pneumoniae strain 5, Muller Hinton broth-cation adjusted): 4 | Minimum inhibitory concentration ([9]; Klebsiella pneumoniae strain 1, Muller Hinton broth-cation adjusted): 2 | Minimum inhibitory concentration ([9]; Klebsiella pneumoniae strain 2, Muller Hinton broth-cation adjusted): 2 | Minimum inhibitory concentration ([9]; Klebsiella pneumoniae strain 3, Muller Hinton broth-cation adjusted): 4 | Minimum inhibitory concentration ([9]; Klebsiella pneumoniae strain 4, Muller Hinton broth-cation adjusted): 4 | Minimum inhibitory concentration ([9]; Klebsiella pneumoniae strain 5, Muller Hinton broth-cation adjusted): 2
